The record followed here is US20140187548A1, “6 SUBSTITUTED IMIDAZOPYRAZINES FOR USE AS MPS-1 AND TKK INHIBITORS IN THE TREATMENT OF HYPERPROLIFERATIVE DISORDERS” (BAYER INTELLECTUAL PROPERTY GMBH, priority 2010, published 2014).

By IC50 is commonly meant the midpoint of a concentration-inhibition curve.

The target of this experiment is T1, human kinase Mps-1 (Homo sapiens, UniProt P33981).
T1 construct: N-terminally GST-tagged human full length recombinant Mps-1 kinase; GST (N); purchased Invitrogen, Karslruhe, Germany PV4071
T1 sequence (P33981 1-857): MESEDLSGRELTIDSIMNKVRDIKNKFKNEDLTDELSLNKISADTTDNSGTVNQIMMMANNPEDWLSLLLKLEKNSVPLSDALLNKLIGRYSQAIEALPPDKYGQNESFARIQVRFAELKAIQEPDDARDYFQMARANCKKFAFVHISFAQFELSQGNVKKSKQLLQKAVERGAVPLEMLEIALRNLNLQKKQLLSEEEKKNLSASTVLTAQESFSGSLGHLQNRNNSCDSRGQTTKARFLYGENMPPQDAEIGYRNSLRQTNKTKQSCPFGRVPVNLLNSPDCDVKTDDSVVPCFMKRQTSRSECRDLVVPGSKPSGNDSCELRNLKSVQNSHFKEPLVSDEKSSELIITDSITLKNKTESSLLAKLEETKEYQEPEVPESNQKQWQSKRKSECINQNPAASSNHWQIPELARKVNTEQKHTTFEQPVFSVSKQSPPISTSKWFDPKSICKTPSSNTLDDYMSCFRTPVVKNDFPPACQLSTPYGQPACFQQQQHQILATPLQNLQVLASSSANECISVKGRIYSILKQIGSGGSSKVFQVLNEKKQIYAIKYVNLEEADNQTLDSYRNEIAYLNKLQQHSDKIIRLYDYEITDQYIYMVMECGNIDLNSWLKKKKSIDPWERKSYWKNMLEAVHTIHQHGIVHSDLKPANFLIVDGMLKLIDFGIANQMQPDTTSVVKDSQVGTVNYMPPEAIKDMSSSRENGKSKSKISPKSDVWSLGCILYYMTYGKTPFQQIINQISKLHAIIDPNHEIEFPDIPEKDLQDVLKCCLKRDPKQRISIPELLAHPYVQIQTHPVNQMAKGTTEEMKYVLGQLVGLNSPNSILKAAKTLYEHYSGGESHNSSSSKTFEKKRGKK
Put plainly: Mps-1 kinase assay (TR-FRET). To be noted: N-terminally GST-tagged human full length recombinant Mps-1; 10 μM ATP; 1 μM peptide substrate; 15 min pre-incubation; 60 min at 22° C. Type of experiment: biochemical. In outline:
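N-terminally GST-tagged full-length recombinant human Mps-1, about 1 nM final, phosphorylates a biotinylated peptide. Product detected by TR-FRET from Eu-anti-phospho-Ser/Thr antibody to streptavidin-XLent after 1 h at 22° C.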
As for `O=C(NC1CC1)c1ccc(-c2cnc3c(NCCOc4ccccc4)nc(-c4ccccc4)cn23)cc1` [Example 2-40, N-cyclopropyl-4-{8-[(2-phenoxyethyl)amino]-6-phenylimidazo[1,2-a]pyrazin-3-yl}benzamide], the IC50 was determined as 9.8 nM.

Turning to `O=C(NC1CC1)c1ccc(-c2cnc3c(NCCc4ccncc4)nc(-c4ccccc4)cn23)cc1` [Example 2-41, N-cyclopropyl-4-(6-phenyl-8-{[2-(pyridin-4-yl)ethyl]amino}imidazo[1,2-a]pyrazin-3-yl) benzamide], the IC50 was found to be 5.5 nM.

In the case of `NC(=O)CCNc1nc(-c2ccccc2)cn2c(-c3ccc(C(=O)NC4CC4)cc3)cnc12` [Example 2-42, 4-{8-[(3-amino-3-oxopropyl)amino]-6-phenylimidazo[1,2-a]pyrazin-3-yl}-N-cyclopropyl-benzamide], the IC50 was 5 nM.

`O=C(NC1CC1)c1ccc(-c2cnc3c(NCCC(F)(F)F)nc(-c4ccccc4)cn23)cc1` [Example 2-43, N-cyclopropyl-4-{6-phenyl-8-[(3,3,3-trifluoropropyl)amino]imidazo[1,2-a]pyrazin-3-yl} benzamide]: the IC50 came to 1.1 nM.

`CN(C)c1ccc(CNc2nc(-c3ccccc3)cn3c(-c4ccc(C(=O)NC5CC5)cc4)cnc23)cc1` [Example 2-44, N-cyclopropyl-4-(8-{[4-(dimethylamino)benzyl]amino}-6-phenylimidazo[1,2-a]pyrazin-3-yl)benzamide]: the IC50 was 18.1 nM.

Regarding `O=C(NC1CC1)c1ccc(-c2cnc3c(NCCCCN4CCCC4)nc(-c4ccccc4)cn23)cc1` [Example 2-45, N-cyclopropyl-4-(6-phenyl-8-{[4-(pyrrolidin-1-yl)butyl]amino}imidazo[1,2-a]pyrazin-3-yl) benzamide], the IC50 came to 11.2 nM.

As to `COCCCNc1nc(-c2ccccc2)cn2c(-c3ccc(C(=O)NC4CC4)cc3)cnc12` [Example 2-46, N-cyclopropyl-4-{8-[(3-methoxypropyl)amino]-6-phenylimidazo[1,2-a]pyrazin-3-yl}benzamide], the IC50 came out at 3.5 nM.

Regarding `O=C(NC1CC1)c1ccc(-c2cnc3c(NCCN4CCNC4=O)nc(-c4ccccc4)cn23)cc1` [Example 2-47, N-cyclopropyl-4-(8-{[2-(2-oxoimidazolidin-1-yl)ethyl]amino}-6-phenylimidazo[1,2-a]pyrazin-3-yl)benzamide], the IC50 is 20 nM.

Regarding `C[S+]([O-])CCNc1nc(-c2ccccc2)cn2c(-c3ccc(C(=O)NC4CC4)cc3)cnc12` (stereo not shown) [Example 2-48, N-cyclopropyl-4-(8-{[2-(methylsulfinyl)ethyl]amino}-6-phenylimidazo[1,2-a]pyrazin-3-yl)benzamide], the half-maximal inhibitory concentration (IC50) amounted to 3.4 nM.

Take `CNC(=O)CNc1nc(-c2ccccc2)cn2c(-c3ccc(C(=O)NC4CC4)cc3)cnc12` [Example 2-49, N-cyclopropyl-4-(8-{[2-(methylamino)-2-oxoethyl]amino}-6-phenylimidazo[1,2-a]pyrazin-3-yl)benzamide]: the IC50 was found to be 32.2 nM.

With `O=C(NC1CC1)c1ccc(-c2cnc3c(NCCc4cccnc4)nc(-c4ccccc4)cn23)cc1` [Example 2-50, N-cyclopropyl-4-(6-phenyl-8-{[2-(pyridin-3-yl)ethyl]amino}imidazo[1,2-a]pyrazin-3-yl) benzamide], the IC50 was 8 nM.

Take `O=C(NC1CC1)c1ccc(-c2cnc3c(NCCCC(F)(F)F)nc(-c4ccccc4)cn23)cc1` [Example 2-51, N-cyclopropyl-4-{6-phenyl-8-[(4,4,4-trifluorobutyl)amino]imidazo[1,2-a]pyrazin-3-yl}benzamide]: the IC50 was determined as 2.4 nM.

As for `O=C(NC1CC1)c1ccc(-c2cnc3c(NCC(F)F)nc(-c4ccccc4)cn23)cc1` [Example 2-52, N-cyclopropyl-4-{8-[(2,2-difluoroethyl)amino]-6-phenylimidazo[1,2-a]pyrazin-3-yl}benzamide], the IC50 was 3.1 nM.
